For 63 compounds, Z-SCORE results are on record in article PMC5653977 (EMBO Molecular Medicine, 2017).

Where a name gives a salt, the structure may show the parent alone. *1 amine or outer side, *2 acyl side, *3 side chain or, on linkers, in order; H or OH if unused. Where a SMILES comes first, the peptide text is derived from it. Bridges are numbered along the chain shown (N, C = ends). Roman numbers before positions name the chains, in order. [ ]: non-standard residue; d: D form. Actinocin(9to1) = Cc1c2oc3c(C)ccc(C(=O)[*:1])c3nc-2c(C(=O)[*:2])c(N)c1=O; NMeV = CN[C@H](C(=O)O)C(C)C; Sar = CNCC(=O)O

One test has as its system NRG1-ERBB4 signaling. Briefly: Nrg1-ERBB4-PIK3R1 split TEV co-culture compound screen of the NIH Clinical Collection. The class given is cell-based, human.
Details: not given
The compound `Oc1ccc2c3c1O[C@H]1[C@@H](O)CC[C@@]4(O)[C@@H](C2)N(CC2CCC2)CC[C@]314` [Nalbuphine] returned a Z-SCORE of -1.86.

Staying with this test, now noted: NIH Clinical Collection NCC-003 raw data; compounds ranked by Z-score; 'flagged' given instead of a Z-score.
Regarding `Cc1c2oc3c(C)ccc(C(=O)N[C@@H]4C(=O)N[C@H](C(C)C)C(=O)N5CCC[C@H]5C(=O)N(C)CC(=O)N(C)[C@@H](C(C)C)C(=O)O[C@@H]4C)c3nc-2c(C(=O)N[C@@H]2C(=O)N[C@H](C(C)C)C(=O)N3CCC[C@H]3C(=O)N(C)CC(=O)N(C)[C@@H](C(C)C)C(=O)O[C@@H]2C)c(N)c1=O` [DACTINOMYCIN] (I: T[dV]P[Sar][NMeV] / II: T[dV]P[Sar][NMeV]; ester I:1-I:C, II:1-II:C; linker I:N-II:N via Actinocin(9to1)), the Z-SCORE entry is on record as “flagged”. The compound `COc1ccccc1OCCNCC(O)COc1cccc2[nH]c3ccccc3c12` (stereo not shown) [Carvedilol] displayed a Z-SCORE of -1.89.

As to `Nc1ccn([C@@H]2O[C@H](CO)[C@@H](O)[C@@H]2O)c(=O)n1`, the Z-SCORE was -1.99.

For `CCOC(=O)[C@H](CCc1ccccc1)N[C@@H](C)C(=O)N1[C@H](C(=O)O)C[C@@H]2CCC[C@@H]21` [reference compound], the Z-SCORE is given as -1.41.

On to `CC[C@H](C)C(=O)O[C@H]1CCC=C2C=C[C@H](C)[C@H](CC[C@@H]3C[C@@H](O)CC(=O)O3)[C@H]21` [mevastatin], for which the Z-SCORE result is listed as “flagged”.

`Clc1ccc(CO/N=C(\Cn2ccnc2)c2ccc(Cl)cc2Cl)c(Cl)c1` [OXICONAZOLE NITRATE] had a Z-SCORE of -1.71. In the case of `C=C1C[C@@H]2[C@H](CC[C@]3(C)C(=O)CC[C@@H]23)[C@@]2(C)C=CC(=O)C=C12` [EXEMESTANE], the Z-SCORE is -1.23. The same measure, in the same setting: next, `CC(=O)O[C@@]12CO[C@@H]1C[C@H](O)[C@@]1(C)C(=O)[C@H](O)C3=C(C)[C@@H](OC(=O)[C@H](O)[C@@H](NC(=O)OC(C)(C)C)c4ccccc4)C[C@@](O)([C@@H](OC(=O)c4ccccc4)[C@H]21)C3(C)C` [DOCETAXEL]: -1.13.

The test is the same for the next values; noted with them: compound screen of the NIH Clinical Collection, sheet raw data NCC-003; compounds ranked by Z-score.
The compound `C[C@]12C[C@H](O)[C@H]3[C@@H](CCC4=CC(=O)CC[C@@]43C)[C@@H]1CC[C@@H]2C(=O)CO` [CORTICOSTERONE] returned a Z-SCORE of 0.4. `Oc1cc2c(cc1O)[C@@H]1c3ccccc3CN[C@H]1CC2`: the Z-SCORE is reported as 0.99.

Regarding `C[C@]12C/C(=C/O)C(=O)C[C@@H]1CC[C@@H]1[C@@H]2CC[C@@]2(C)[C@H]1CC[C@]2(C)O` [Oxymetholone], the Z-SCORE is recorded as 1.79. In turn, `Cc1c(C(=O)NN2CCCCC2)nn(-c2ccc(Cl)cc2Cl)c1-c1ccc(I)cc1` [AM-251] showed a Z-SCORE of -0.56. On the same count and under the same terms, next, `O=C1Nc2ccc(Cl)cc2C(c2ccccc2Cl)=NC1O` (stereo not shown) [Lorazepam]: 0.53; `COc1ccc2c(c1)c(CC(=O)O)c(C)n2C(=O)c1ccc(Cl)cc1` [Indomethacin]: 0.08; `COc1ccc2c3c1O[C@H]1C[C@@H](O)C=C[C@@]31CCN(C)C2` [Galanthamine]: 1.13.

In turn, `NC1=NC(=O)C(c2ccccc2)O1` (stereo not shown) [Pemoline] yielded a Z-SCORE of -0.71.

For the compound `CN1CC[C@]2(c3cccc(O)c3)Cc3nc4ccccc4cc3C[C@H]2C1` [SB 205607], the Z-SCORE stood at 0.19.

Compound `OCCN1C[C@H](O)[C@@H](O)[C@H](O)[C@H]1CO` [MIGLITOL] displayed a Z-SCORE of -0.33. Still for that read-out and setting: next, `CC(=O)OCC(CCn1cnc2cnc(N)nc21)COC(C)=O` [FAMCICLOVIR]: 1.05; `CS(=O)(=O)c1ccc(C2=C(c3ccccc3)C(=O)OC2)cc1` [ROFECOXIB]: 0.81; `CNCC(O)c1ccc(O)cc1` (stereo not shown) [SYNEPHRINE]: -0.41.

As for `CN(C)CCc1c[nH]c2ccc(C[C@H]3COC(=O)N3)cc12` [Zolmitriptan], the Z-SCORE worked out at 0.57. The same measure, in the same setting: the value for `C[C@H](CCC(=O)O)[C@H]1CC[C@H]2[C@@H]3C(=O)C[C@@H]4CC(=O)CC[C@]4(C)[C@H]3CC(=O)[C@]12C` [DEHYDROCHOLIC ACID] was -0.51; that for `C[C@H](N[C@@H](CCc1ccccc1)C(=O)O)C(=O)N1CCC[C@H]1C(=O)O` was -0.43. Consider `Oc1ccc(/C=C/c2cc(O)cc(O)c2)cc1` [Resveratrol], for which the Z-SCORE was 2.61. Compound `COC(=O)C1=C(C)NC(C)=C(C(=O)OCC(C)C)C1c1ccccc1[N+](=O)[O-]` (stereo not shown) [NISOLDIPINE] registered a Z-SCORE of 2.32. `COc1ccc(C(=O)NCc2ccc(OCCN(C)C)cc2)cc1OC.Cl` [ITOPRIDE HCl] showed a Z-SCORE of 1.68. On the same count and under the same terms, next, `COc1ccc2cc([C@H](C)C(=O)O)ccc2c1` [NAPROXEN SODIUM]: 0.35; `C#CCN(C)[C@H](C)Cc1ccccc1` [Selegiline hydrochloride]: -0.57; `CN(CCOc1ccc(CC2SC(=O)NC2=O)cc1)c1ccccn1` (stereo not shown) [ROSIGLITAZONE MALEATE]: -0.83. The compound `CN(CCOc1ccc(NS(C)(=O)=O)cc1)CCc1ccc(NS(C)(=O)=O)cc1` [DOFETILIDE] gave a Z-SCORE of 0. On the same count and under the same terms, next, `O=C(O)COCCN1CCN([C@H](c2ccccc2)c2ccc(Cl)cc2)CC1` [LEVOCETIRIZINE]: 0.15; `Cc1ccc(-c2nc3ccc(C)cn3c2CC(=O)N(C)C)cc1` [ZOLPIDEM TARTRATE]: -0.69.

For `Cl.Nc1c2c(nc3c1CCC3)CCCC2`, the Z-SCORE is on record as -0.08. Still for that read-out and setting: next, `CN1CC(=O)N2[C@H](c3ccc4c(c3)OCO4)c3[nH]c4ccccc4c3C[C@@H]2C1=O`: 0.97; `CCN1CCN(c2cc3c(cc2F)c(=O)c(C(=O)O)cn3C2CC2)CC1` [ENROFLOXACIN]: 0.83.

The test is the same for the next values; noted with them: compounds at 10 μM, 24 h; PC12 split TEV assay cells co-cultured with Nrg1-expressing PC12 cells; analysed with cellHTS2.
As for `C[C@]12CCC(=O)C=C1CC[C@@H]1[C@@H]2[C@@H](O)C[C@@]2(C)[C@H]1CC[C@]2(O)C(=O)COC(=O)CCC(=O)O` [HYDROCORTISONE HEMISUCCINATE, reference compound], the Z-SCORE is reported as -1.64. Take `CC[C@H](C)C(=O)O[C@H]1C[C@@H](C)C=C2C=C[C@H](C)[C@H](CC[C@@H]3C[C@@H](O)CC(=O)O3)[C@H]21` [Lovastatin, reference compound]: the Z-SCORE result was “flagged”. With `CN(C)c1ccc(O)c2c1C[C@H]1C[C@H]3[C@H](N(C)C)C(O)=C(C(N)=O)C(=O)[C@@]3(O)C(O)=C1C2=O` [MINOCYCLINE HYDROCHLORIDE, reference compound], the Z-SCORE is reported as -0.02. Same read-out and setting: the value for `COc1c(N2CCNC(C)C2)c(F)cc2c(=O)c(C(=O)O)cn(C3CC3)c12` (stereo not shown) [Gatifloxacin, reference compound] was 1.07; that for `Nc1nc(O)c2ncn(COC(CO)CO)c2n1` [Ganciclovir, reference compound] was -0.19. As for `OCCN(CCO)c1nc(N2CCCCC2)c2nc(N(CCO)CCO)nc(N3CCCCC3)c2n1` [DIPYRIDAMOLE, reference compound], the Z-SCORE was -1.46.

`CC1COc2c(N3CCN(C)CC3)c(F)cc3c(=O)c(C(=O)O)cn1c23` (stereo not shown) [OFLOXACIN, reference compound] yielded a Z-SCORE of 0.8. Still for that read-out and setting: the value for `O=S(=O)(O)CCS` [Mesna, reference compound] was 0.04; that for `C/C(=C\C(=O)OCCCCCCCCC(=O)O)C[C@@H]1OC[C@H](C[C@@H]2O[C@H]2[C@@H](C)[C@H](C)O)[C@@H](O)[C@H]1O` [Mupirocin, reference compound] was 0.71; that for `Cc1cnc(NC(=O)C2=C(O)c3ccccc3S(=O)(=O)N2C)s1` [Meloxicam, reference compound] was 0.24. Still for that read-out and setting: the value for `CCCC(=O)Nc1ccc(OCC(O)CNC(C)C)c(C(C)=O)c1` (stereo not shown) [ACEBUTOLOL HYDROCHLORIDE, reference compound] was 0.4. `CNC(=C[N+](=O)[O-])NCCSCc1ccc(CN(C)C)o1` [Ranitidine hydrochloride, reference compound] displayed a Z-SCORE of -0.51. On the same count and under the same terms, the value for `NC(=O)N1c2ccccc2C=Cc2ccccc21` [Carbamazepine, reference compound] was -0.83; that for `C[n+]1ccccc1/C=N/O.[Cl-]` [PYRIDINE-2-ALDOXIME METHOCHLORIDE, reference compound] was 2.7; that for `CCOC(=O)[C@H](CCc1ccccc1)N[C@@H](C)C(=O)N1[C@H](C(=O)O)C[C@@H]2CCC[C@@H]21` [reference compound] was 4.3.

The compound `CC(N)C12CC3CC(CC(C3)C1)C2` (stereo not shown) [Flumadine, reference compound] yielded a Z-SCORE of -0.97. Consider `NCC(=O)CCC(=O)O` [Aminolevulinic Acid, reference compound], for which the Z-SCORE is recorded as -0.04. Compound `NNC(=O)c1ccncc1` [Isoniazid, reference compound] gave a Z-SCORE of -0.38. The same measure, in the same setting: the value for `Clc1ccc2c(c1)C(N1CCNCC1)=Nc1ccccc1O2` [AMOXAPINE, reference compound] was 0.4.

As to `CN1[C@@H]2CC[C@H]1C[C@@H](OC(c1ccccc1)c1ccccc1)C2.CS(=O)(=O)O` [Cogentin Mesylate, reference compound], the Z-SCORE is listed as -2.36. In turn, `CC(C)C(=O)Nc1ccc([N+](=O)[O-])c(C(F)(F)F)c1` [FLUTAMIDE, reference compound] yielded a Z-SCORE of 0.85. On the same count and under the same terms, the value for `Nc1nc(=O)c2nc(CNc3ccc(C(=O)N[C@@H](CCC(=O)O)C(=O)O)cc3)cnc2[nH]1` [Folic acid, reference compound] was 0. Same read-out and setting: next, `C[C@H]1C[C@@H]2[C@H]([C@@H](O)C[C@@]3(C)[C@H]2CC[C@]3(O)C(=O)CO)[C@@]2(C)C=CC(=O)C=C12` [METHYLPREDNISOLONE, reference compound]: 0.65; `O=C1CN(/N=C/c2ccc([N+](=O)[O-])o2)C(=O)N1` [NITROFURANTOIN, reference compound]: -0.02; `Clc1ccc2nsnc2c1NC1=NCCN1` [Tizanidine hydrochloride, reference compound]: -0.96. The same measure, in the same setting: the value for `CC/C(=C(\c1ccccc1)c1ccc(OCCN(C)C)cc1)c1ccccc1` [Tamoxifen, reference compound] was 1.48. Turning to `O=C1CC[C@@]2(O)[C@H]3Cc4ccc(O)c5c4[C@@]2(CCN3CC2CC2)[C@H]1O5` [NALTREXONE HYDROCHLORIDE, reference compound], the Z-SCORE amounted to 0.59.
